The values below come from publication PMC5514153, “Targeting PTPRZ inhibits stem cell-like properties and tumorigenicity in glioblastoma cells” (Scientific Reports, 2017).

In assay [1] the target is T1, human PTPRZ1 (whole intracellular region, D1+D2) (Homo sapiens, UniProt P23471).
T1 construct: Recombinant proteins corresponding to the entire intracellular regions (ICRs) of PTPRZ1, PTPRA, and PTPRM; made in house; host or cells: baculovirus-silkworm expression system
Kind of assay: In vitro PTPase assay (DiFMUP), PTPRZ1 whole intracellular region. Format: biochemical. Here is the method: Figure 4 NAZ2329, an allosteric inhibitor of R5 RPTP subfamily members. (A) Structure of NAZ2329. (B) Effect of preincubation of NAZ2329 on its inhibitory activity against PTPRZ. Recombinant human PTPRZ1 enzyme (the whole intracellular region) was premixed with NAZ2329 for the indicated times and followed by addition of a fluorogenic DiFMUP (non-specific PTP substrate, 6,8-difluoro-4-methylumbiliferyl phosphate) to measure PTP inhibitory activity. (C) Time dependence. The PTPRZ1 enzyme was added to the inhibitor–substrate mixture, and the inhibitory activity was determined at each time point relative to the vehicle control. (D) Reversibility of inhibition. PTPRZ1 enzymes were preincubated with NAZ2329 at the indicated concentrations for 30 min. The mixture was then 20-fold diluted, and recovered PTP activity was expressed as the relative activity compared with the vehicle-treated enzyme. (E) Lineweaver-Burk plot analysis. PTPRZ1 enzymes were preincubated with NAZ2329 for 60 min, and the PTP activity was measured using DiFMUP. (F) Concentration-inhibition curves of NAZ2329 for representative PTP members, including human PTPRZ and PTPRG (another R5 RPTP subfamily member), human PTPRS (R2A subfamily), human PTPRM (R2B subfamily), mouse PTPRB (R3 subfamily), human PTPRA (R4 subfamily), human PTPN1 (non-transmembrane PTP, NT1 subfamily), and human PTPN6 (NT2 subfamily), were generated. Assays were performed using DiFMUP. IC50 values obtained are shown in the inset. Data represent the averages of two or three separate experiments. TEXT PRINTED IN THE PICTURE: (F) NAZ2329: IC50 (μM): hPTPRZ1 7.5; IC50 (μM): hPTPRG 4.8; IC50 (μM): hPTPRA 35.7; IC50 (μM): hPTPRM 56.7; IC50 (μM): hPTPRS 23.7; IC50 (μM): mPTPRB 35.4; IC50 (μM): hPTPN6 15.2; IC50 (μM): hPTPN1 14.5
Recombinant proteins corresponding to the entire intracellular regions (ICRs) of PTPRZ1, PTPRA, and PTPRM were expressed using a baculovirus-silkworm expression system, and purified as described. The ICRs of PTPRG, PTPRS, and PTPRB and the catalytic domains of PTPN1 and PTPN6 were expressed as glutathione-S-transferase (GST) fusion proteins from each pGEX plasmid in Escherichia coli strain BL21 (ref. [6]). GST fusion proteins were purified by glutathione affinity chromatography as described. Chondroitinase ABC (chABC) was purchased from Sigma-Aldrich (catalog #C3667). Anti-PTPRZ-S, rabbit polyclonal antibodies against the extracellular region of PTPRZ was described previously (ref. [44]). The following are the specificities and sources of the commercially available antibodies used in the present study: Anti-RPTPβ (a monoclonal antibody against the intracellular domain of PTPRZ1 receptors, #610179, BD Biosciences), anti-SOX2 (#ab97959, Abcam), anti-POU3F2 (#12137, Cell Signaling), anti-OLIG2 (#AB9610, Millipore), anti-SALL2 (#12679–1-AP, Proteintech Group), anti-GAPDH (#ab9482, Abcam) anti-phosphotyrosine (PY20; #ab16389, Abcam), and anti-pY118-paxillin (#2541, Cell Signaling), mouse anti-paxillin antibody (#610569, BD Bioscience), anti-MBP (#sc-13914, Santa Cruz Biotechnology), and anti-NG2 proteoglycan (#AB5320, Millipore). […]

The subject of assay [2] is C6 xenograft. Kind of assay: C6 subcutaneous xenograft nude mouse model. Format: in vivo. The following applies: nude mice, i.p. twice per week; NAZ2329 45 µmol (22.5 mg)/kg, TMZ 50 mg/kg; vehicle 17 days. The procedure:
Figure 10 Antitumor effects of NAZ2329 on the C6 mouse xenograft model. (A) Nude mice were subcutaneously implanted with C6 cells (5 × 10^6 cells), and tumor size was monitored until the criteria were met (>150 mm^3). At this time, mice were randomly divided into 4 treatment groups. DMSO as the vehicle control (n = 7), NAZ2329 (45 µmol (22.5 mg)/kg body weight, n = 9), temozolomide (TMZ, 50 mg/kg, n = 9), and the combination of NAZ2329 (45 µmol/kg) with TMZ (50 mg/kg) (n = 9) were administered intraperitoneally twice per week until the humane endpoint (>3,000 mm^3 tumor size or 40 days after the treatment). Tumor growth in each animal and the number of days required to reach a tumor volume of 3,000 mm^3 are shown in the graph. Five mice were sacrificed due to tumor necrosis (shown by gray symbols in the graph), and two mice unexpectedly died suddenly during the observation period (black symbols in the graph).
Parental or Ptprz-knockdown C6 cells (5 × 10^6 cells) suspended in a volume of 100 µl were subcutaneously injected into the left hind limbs of BALB/c-nu/nu mice (females, 4 weeks old mice were purchased from Japanese Charles River Co. Ltd.). Tumor growth was measured with calipers and calculated by the formula: volume = length × width × width × 0.5, as previously described. The drug treatment initiated when the tumor size reached 150 mm^3. […]

T1 sequence (P23471 1663-2315 limits assumed): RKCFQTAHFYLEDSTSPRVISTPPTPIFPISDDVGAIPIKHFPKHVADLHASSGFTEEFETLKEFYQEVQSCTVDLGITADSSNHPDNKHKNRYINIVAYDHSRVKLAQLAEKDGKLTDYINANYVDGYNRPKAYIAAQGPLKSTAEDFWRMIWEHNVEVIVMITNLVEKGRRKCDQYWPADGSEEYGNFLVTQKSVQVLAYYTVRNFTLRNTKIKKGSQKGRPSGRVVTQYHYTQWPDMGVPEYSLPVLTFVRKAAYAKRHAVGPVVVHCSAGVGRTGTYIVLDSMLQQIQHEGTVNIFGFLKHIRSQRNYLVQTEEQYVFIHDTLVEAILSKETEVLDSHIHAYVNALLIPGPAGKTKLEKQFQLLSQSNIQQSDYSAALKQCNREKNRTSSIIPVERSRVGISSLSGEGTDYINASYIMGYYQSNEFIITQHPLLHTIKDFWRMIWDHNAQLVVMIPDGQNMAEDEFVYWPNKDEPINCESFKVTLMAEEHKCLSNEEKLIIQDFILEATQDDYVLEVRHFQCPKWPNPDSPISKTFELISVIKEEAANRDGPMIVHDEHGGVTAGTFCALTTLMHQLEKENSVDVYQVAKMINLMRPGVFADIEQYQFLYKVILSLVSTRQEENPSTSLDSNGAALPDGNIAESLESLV

What is called IC50 is the midpoint of a concentration-inhibition curve. For the molecule `CCOc1ccc(C(F)(F)F)cc1CSc1ccsc1C(=O)NS(=O)(=O)c1ccccc1` [NAZ2329], in assay [1] (30 min preincubation, then 20-fold dilution), the “reversibility: enzymatic activity after 20-fold dilution of enzyme-compound mixture” value is recorded as “fully recovered to the control level”. Moreover, the “type of inhibition (Lineweaver-Burk plot)” value in assay [1] (60 min preincubation, DiFMUP) is on record as “noncompetitive-type inhibition”. Also, the IC50 in assay [1] (whole intracellular region, DiFMUP, 60-min preincubation, read-out: IC50 hPTPRZ1 (D1+D2)) was determined as 7.5 µM. In addition, the “median day for the tumor size to reach 3,000 mm^3” value in assay [2] amounted to 25 days.
